System: E. coli O157:H7
Assay: Antimicrobial activity on E. coli O157:H7 (CFU count, IC50)
Assay type: cell-based
Settings: Table 6
Protocol: Measurement method for antimicrobial activity: For the measurement of antimicrobial activity, E. coli [E. coli O157:H7 (collected from an E. coli O157 patients in Okayama prefecture, Kanagawa prefecture and Morioka city of Iwate Prefecture)], Klebsiella or Methicillin resistant Staphylococcus aureus; MRSA] was used.
These bacteria were grown in a liquid medium (Tryptosoy broth; manufactured by Eiken Kagaku). The bacteria cells in a logarithmic growth phase were collected, washed with PBS (pH 7.2), and adjusted to a final concentration of 5 ×10^3 to 1×10^4 cells/ml. To 450 μl of cell suspension, 50 μl of samples (peptide) in various concentrations were each added and mixtures were incubated at 37° C. for 1 hour. After the incubation, 100 μl of each reaction mixture was spread on an agarose medium (Nutrient agar; manufactured by Eiken Kagaku). This was incubated at 37° C. for 24 hours and the colony-forming unit (CFU) was counted to obtain 50% inhibition concentration (IC50).
Polymyxin B (known antimicrobial agent), A1, the peptide of the present invention (b), A3, the peptide of the present invention (d), A5 and A6 were used as samples and their antimicrobial activities on E. coli [E. coli O157:H7 (collected from E. coli O157 patients in Okayama prefecture, Kanagawa prefecture and Morioka city of Iwate Prefecture)] were examined by the above-described measurement method. […]

Polymyxin B
Antimicrobial Activity on E. Coli O157:H7 (IC50) (isolate Kanagawa): < 2.5 µg/mL
Antimicrobial Activity on E. Coli O157:H7 (IC50) (isolate Okayama): 0.2 µg/mL

Source: US6040291A, “Antimicrobial peptide” (Seikagaku Corporation, priority 1998, dated 2000)
